Laboratory results as given in US20080114007A1 (priority 2006, published 2008).
Read-outs that look alike come from different tables or passages of the source.

Target: CSF-1R (Homo sapiens, UniProt P07333)
Test: Peptide (non-phosphorylated) assay, fluorescence polarization competition immunoassay
Type: biochemical
Settings: 308 μM SYEGNSYTFIDPTQ peptide, 1 mM ATP, 80 min, mean of at least three determinations
Outline: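 Human CSF-1R kinase reaction started with ATP and run 80 min at room temperature, then stopped with EDTA. Phosphopeptide detected by fluorescence polarization competition using anti-phosphotyrosine antibody and PTK green tracer after 30 min. Controls used 4% DMSO, with EDTA added before reaction start for positive controls.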

[1] = 0.7 nM CSF-1R, read-out: c-fms Peptide IC50

Sequence of CSF-1R (P07333 20-972): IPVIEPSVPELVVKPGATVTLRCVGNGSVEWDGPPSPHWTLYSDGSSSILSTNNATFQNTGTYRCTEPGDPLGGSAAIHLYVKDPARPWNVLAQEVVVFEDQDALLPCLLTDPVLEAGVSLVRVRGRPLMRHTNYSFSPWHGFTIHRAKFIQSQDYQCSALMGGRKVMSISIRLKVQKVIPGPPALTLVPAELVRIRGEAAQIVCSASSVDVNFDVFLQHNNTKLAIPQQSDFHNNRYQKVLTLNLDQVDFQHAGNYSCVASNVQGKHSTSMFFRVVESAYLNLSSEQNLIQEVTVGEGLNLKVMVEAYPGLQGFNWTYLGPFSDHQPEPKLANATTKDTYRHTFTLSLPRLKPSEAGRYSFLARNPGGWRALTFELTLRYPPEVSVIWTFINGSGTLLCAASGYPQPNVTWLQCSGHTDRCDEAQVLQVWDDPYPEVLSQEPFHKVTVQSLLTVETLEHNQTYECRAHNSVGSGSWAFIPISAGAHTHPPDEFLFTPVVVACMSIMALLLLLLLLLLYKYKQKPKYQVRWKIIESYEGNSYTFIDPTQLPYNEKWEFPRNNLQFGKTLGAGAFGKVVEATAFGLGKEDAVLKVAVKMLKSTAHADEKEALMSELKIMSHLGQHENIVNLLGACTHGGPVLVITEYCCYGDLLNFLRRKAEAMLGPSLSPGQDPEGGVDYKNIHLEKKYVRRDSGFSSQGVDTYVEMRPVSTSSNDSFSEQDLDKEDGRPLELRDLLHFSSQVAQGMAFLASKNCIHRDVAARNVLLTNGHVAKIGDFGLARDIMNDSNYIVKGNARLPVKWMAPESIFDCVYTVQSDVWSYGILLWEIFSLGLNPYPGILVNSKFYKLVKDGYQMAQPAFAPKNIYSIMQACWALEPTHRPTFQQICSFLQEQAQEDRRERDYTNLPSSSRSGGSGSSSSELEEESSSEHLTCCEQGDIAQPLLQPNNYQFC

Compound | IC50 [1] | IC50 (c-fms Peptide IC50, 0.7 nM CSF-1R)
CCN1CCCC(Oc2cccc(Nc3ncc4c(=O)c(C(=O)NOC)cn(-c5ccc6c(c5)CCC6)c4n3)c2)C1 (stereo not drawn) [Cpd 251, 2-[3-(1-ethyl-piperidin-3-yloxy)-phenylamino]-8-indan-5-yl-5-oxo-5,8-dihydro-pyrido[2,3-d]pyrimidine-6-carboxylic acid methoxy-amide] | 930 pM | –
CONC(=O)c1cn(-c2ccc3c(c2)CCC3)c2nc(Nc3cccc(NC(=O)CN(C)C)c3)ncc2c1=O [Cpd 229, 2-[3-(2-dimethylamino-acetylamino)-phenylamino]-8-indan-5-yl-5-oxo-5,8-dihydro-pyrido[2,3-d]pyrimidine-6-carboxylic acid methoxy-amide] | 420 pM | –
CC(C)ONC(=O)c1cn(C2CCCCC2)c2nc(Nc3ccc(CCN4CCCC4)cc3)ncc2c1=O [Cpd 16, 8-cyclohexyl-5-oxo-2-[4-(2-pyrrolidin-1-yl-ethyl)-phenylamino]-5,8-dihydro-pyrido[2,3-d]pyrimidine-6-carboxylic acid isopropoxy-amide] | 640 pM | –
CCN1CCC(c2ccc(Nc3ncc4c(=O)c(C(=O)NOC)cn(C5CCC(C)(C)CC5)c4n3)cc2)CC1 [Cpd 208, 8-(4,4-dimethyl-cyclohexyl)-2-[4-(1-ethyl-piperidin-4-yl)-phenylamino]-5-oxo-5,8-dihydro-pyrido[2,3-d]pyrimidine-6-carboxylic acid methoxy-amide] | 400 pM | –
CONC(=O)c1cn(C2CCCCC2)c2nc(Nc3ccc(CCN4CCN(C)CC4)cc3)ncc2c1=O [Cpd 18, 8-cyclohexyl-2-{4-[2-(4-methyl-piperazin-1-yl)-ethyl]-phenylamino}-5-oxo-5,8-dihydro-pyrido[2,3-d]pyrimidine-6-carboxylic acid methoxy-amide] | 300 pM | –
O=C(NCCO)c1cn(-c2ccc3c(c2)CCC3)c2nc(Nc3cccc(N4CCNCC4)c3)ncc2c1=O [Cpd 66, 8-indan-5-yl-5-oxo-2-(3-piperazin-1-yl-phenylamino)-5,8-dihydro-pyrido[2,3-d]pyrimidine-6-carboxylic acid (2-hydroxy-ethyl)-amide] | 2500 pM | –
CONC(=O)c1cn(-c2ccc3c(c2)CCC3)c2nc(Nc3ccc(CCN4CCNCC4)cc3)ncc2c1=O [Cpd 144, 8-indan-5-yl-5-oxo-2-[4-(2-piperazin-1-yl-ethyl)-phenylamino]-5,8-dihydro-pyrido[2,3-d]pyrimidine-6-carboxylic acid methoxy-amide] | 400 pM | –
CCc1ccc(-n2cc(C(=O)NOC(C)C)c(=O)c3cnc(Nc4ccc(C5CCN(CC)CC5)cc4)nc32)cc1 [Cpd 182, 8-(4-ethyl-phenyl)-2-[4-(1-ethyl-piperidin-4-yl)-phenylamino]-5-oxo-5,8-dihydro-pyrido[2,3-d]pyrimidine-6-carboxylic acid isopropoxy-amide] | 700 pM | –
CCc1ccc(-n2cc(C(=O)NOC)c(=O)c3cnc(Nc4ccc(CCN5CCCC5)cc4)nc32)cc1 [Cpd 55, 8-(4-ethyl-phenyl)-5-oxo-2-[4-(2-pyrrolidin-1-yl-ethyl)-phenylamino]-5,8-dihydro-pyrido[2,3-d]pyrimidine-6-carboxylic acid methoxy-amide] | 510 pM | –
CONC(=O)c1cn(-c2ccc3c(c2)CCC3)c2nc(Nc3ccc(CCS(=O)(=O)NC(C)=O)cc3)ncc2c1=O [Cpd 90, 2-[4-(2-acetylsulfamoyl-ethyl)-phenylamino]-8-indan-5-yl-5-oxo-5,8-dihydro-pyrido[2,3-d]pyrimidine-6-carboxylic acid methoxy-amide] | – | 2400 pM
CCc1ccc(-n2cc(C(=O)NOC(C)C)c(=O)c3cnc(Nc4ccc(C5CCN(CCCO)CC5)cc4)nc32)cc1 [Cpd 187, 8-(4-ethyl-phenyl)-2-{4-[1-(3-hydroxy-propyl)-piperidin-4-yl]-phenylamino}-5-oxo-5,8-dihydro-pyrido[2,3-d]pyrimidine-6-carboxylic acid isopropoxy-amide] | 700 pM | –
CONC(=O)c1cn(-c2ccc3c(c2)CCC3)c2nc(Nc3ccc4[nH]ccc4c3)ncc2c1=O [Cpd 287, 8-indan-5-yl-2-(1H-indol-5-ylamino)-5-oxo-5,8-dihydro-pyrido[2,3-d]pyrimidine-6-carboxylic acid methoxy-amide] | 900 pM | –
CONC(=O)c1cn(C2CCCC2)c2nc(Nc3ccc(N4CCCC4)cc3)ncc2c1=O [Cpd 35, 8-cyclopentyl-5-oxo-2-(4-pyrrolidin-1-yl-phenylamino)-5,8-dihydro-pyrido[2,3-d]pyrimidine-6-carboxylic acid methoxy-amide] | 2200 pM | –
CCc1ccc(-n2cc(C(=O)NOC)c(=O)c3cnc(Nc4cccc(OCCCOC)c4)nc32)cc1 [Cpd 216, 8-(4-ethyl-phenyl)-2-[3-(3-methoxy-propoxy)-phenylamino]-5-oxo-5,8-dihydro-pyrido[2,3-d]pyrimidine-6-carboxylic acid methoxy-amide] | 1600 pM | –

Now from value to compound:

IC50 [1] | IC50 (c-fms Peptide IC50, 0.7 nM CSF-1R) | Compound
12000 pM | – | COCCNC(=O)c1cn(-c2ccc3c(c2)CCC3)c2nc(Nc3ccc(CCN4CCCC4)cc3)ncc2c1=O [Cpd 132, 8-indan-5-yl-5-oxo-2-[4-(2-pyrrolidin-1-yl-ethyl)-phenylamino]-5,8-dihydro-pyrido[2,3-d]pyrimidine-6-carboxylic acid (2-methoxy-ethyl)-amide]
400 pM | – | CCCN1CCC(c2ccc(Nc3ncc4c(=O)c(C(=O)NOC)cn(-c5ccc6c(c5)CCC6)c4n3)cc2)CC1 [Cpd 298, 8-indan-5-yl-5-oxo-2-[4-(1-propyl-piperidin-4-yl)-phenylamino]-5,8-dihydro-pyrido[2,3-d]pyrimidine-6-carboxylic acid methoxy-amide]
1400 pM | – | CONC(=O)c1cn(-c2ccc3c(c2)CCC3)c2nc(Nc3cccc(C(=O)NCCN(C)C)c3)ncc2c1=O [Cpd 199, 2-[3-(2-dimethylamino-ethylcarbamoyl)-phenylamino]-8-indan-5-yl-5-oxo-5,8-dihydro-pyrido[2,3-d]pyrimidine-6-carboxylic acid methoxy-amide]
650 pM | – | CONC(=O)c1cn(-c2ccc3c(c2)CCC3)c2nc(Nc3cccc(CCN4CCCC4)c3)ncc2c1=O [Cpd 194, 8-indan-5-yl-5-oxo-2-[3-(2-pyrrolidin-1-yl-ethyl)-phenylamino]-5,8-dihydro-pyrido[2,3-d]pyrimidine-6-carboxylic acid methoxy-amide]
32000 pM | – | CCc1ccc(-n2cc(C(=O)NOC)c(=O)c3cnc(Nc4ccc(-c5cccc(OC)c5)cc4)nc32)cc1 [Cpd 299, 8-(4-ethyl-phenyl)-2-(3′-methoxy-biphenyl-4-ylamino)-5-oxo-5,8-dihydro-pyrido[2,3-d]pyrimidine-6-carboxylic acid methoxy-amide]
300 pM | – | CCc1ccc(-n2cc(C(=O)NOC)c(=O)c3cnc(Nc4ccc5c(c4)CCN5C(C)=O)nc32)cc1 [Cpd 279, 2-(1-acetyl-2,3-dihydro-1H-indol-5-ylamino)-8-(4-ethyl-phenyl)-5-oxo-5,8-dihydro-pyrido[2,3-d]pyrimidine-6-carboxylic acid methoxy-amide]
1000 pM | – | CONC(=O)c1cn(-c2ccc3c(c2)CCC3)c2nc(Nc3ccc(CCN4CCC(=O)CC4)cc3)ncc2c1=O [Cpd 83, 8-indan-5-yl-5-oxo-2-{4-[2-(4-oxo-piperidin-1-yl)-ethyl]-phenylamino}-5,8-dihydro-pyrido[2,3-d]pyrimidine-6-carboxylic acid methoxy-amide]
